In general, inhibition refers to the change of the read-out against control, counted positive when it falls. By IC50 is commonly meant the concentration that inhibits the measured activity by half. A low value points to inhibition by little substance.

The source made the active and inactive calls. The calls are words filed in the database; no cut-off is given here. A value given as a limit tells only on which side of the number the result lay.

This is an account of results in ChEMBL document CHEMBL2010676, “Metabolites of Microcystis aeruginosa bloom material from Lake Kinneret, Israel” (J Nat Prod, 2012).

The target of test [1] is Prothrombin (Homo sapiens) (UniProt P00734). Description: Inhibition of thrombin at 45.5 uM.
Test [2] can be described thus: Inhibition of trypsin.
Test [3] in a line: Inhibition of elastase at 45.5 uM.
A short description of test [4]: Inhibition of chymotrypsin at 45.5 uM.
For test [5], the system named is HCT-116. Description: Cytotoxicity against human HCT116 cells at 1.6 uM. The test is classed as functional, cell-based.
Test [6] can be described thus: Inhibition of trypsin at 45.5 uM.
The target of test [7] is T1, Aminopeptidase N (Bos taurus) (UniProt P79098).
T1 sequence (whole entry): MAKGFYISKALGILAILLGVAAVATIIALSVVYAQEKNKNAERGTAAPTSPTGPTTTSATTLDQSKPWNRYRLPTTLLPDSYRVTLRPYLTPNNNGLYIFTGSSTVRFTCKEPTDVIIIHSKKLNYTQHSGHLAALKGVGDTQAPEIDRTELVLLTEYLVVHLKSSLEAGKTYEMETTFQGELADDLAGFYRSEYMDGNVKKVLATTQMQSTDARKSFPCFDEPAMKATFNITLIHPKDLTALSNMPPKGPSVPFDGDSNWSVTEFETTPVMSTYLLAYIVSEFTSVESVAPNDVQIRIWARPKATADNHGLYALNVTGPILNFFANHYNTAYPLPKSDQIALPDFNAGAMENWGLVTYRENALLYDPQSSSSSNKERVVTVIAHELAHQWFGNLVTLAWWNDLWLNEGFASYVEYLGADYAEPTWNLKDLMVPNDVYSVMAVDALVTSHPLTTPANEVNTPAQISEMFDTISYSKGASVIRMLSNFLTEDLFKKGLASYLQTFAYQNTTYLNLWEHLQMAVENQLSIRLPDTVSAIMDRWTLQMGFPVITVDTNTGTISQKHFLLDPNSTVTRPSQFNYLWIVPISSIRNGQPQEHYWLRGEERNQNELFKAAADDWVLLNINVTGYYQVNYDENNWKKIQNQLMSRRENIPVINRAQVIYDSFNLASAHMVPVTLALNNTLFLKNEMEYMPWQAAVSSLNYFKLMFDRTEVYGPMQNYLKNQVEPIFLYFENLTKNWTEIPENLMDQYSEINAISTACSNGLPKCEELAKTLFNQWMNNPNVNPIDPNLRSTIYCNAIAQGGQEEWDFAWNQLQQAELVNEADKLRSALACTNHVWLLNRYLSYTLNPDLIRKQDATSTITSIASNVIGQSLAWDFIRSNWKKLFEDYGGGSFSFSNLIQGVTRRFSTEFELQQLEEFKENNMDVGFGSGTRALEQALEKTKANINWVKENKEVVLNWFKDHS
As to the kind of experiment: Inhibition of bovine amino peptidase N at 45.5 uM.

A short description of test [8]: Inhibition of chymotrypsin.
The target in test [9] is Prothrombin (Homo sapiens) (UniProt P00734). As to the kind of experiment: Induction of thrombin activity at 45.5 uM.

On to `CC(=O)O[C@H](Cc1ccc(O)cc1)C(=O)N[C@H](Cc1ccccc1)C(=O)N1[C@@H](C(=O)NCCCCNC(=N)N)C[C@H]2CC[C@@H](O)C[C@H]21`, for which the inhibition in test [1] is below 50%. The compound further came in with an IC50 in test [2] of 19.9 µM. Moreover, the inhibition result in test [3] and in test [4] was “inactive” throughout.
For the compound `CC(=O)O[C@@H]1CC[C@@H]2C[C@H](C(N)=O)N(C(=O)[C@@H](Cc3ccc(O)cc3)NC(=O)[C@@H](O)Cc3ccc(O)cc3)[C@@H]2C1`, the inhibition entry in test [1], in [3] and in test [4] was “inactive” in each case. The IC50 in test [2] amounted to 45.5 µM.
On to `CC(C)C[C@@H](NC(=O)[C@H](O)Cc1ccc(O)cc1)C(=O)N[C@@H](Cc1ccccc1)C(=O)NCCCCNC(=N)N`, for which the inhibition entry in [1], in [3] and in [4] was “inactive” throughout. Further, the IC50 in test [2] is 45.5 µM.
`CC(OC(=O)C(CCCNC(=N)N)[N+](C)(C)C)C(OS(=O)(=O)[O-])c1ccc(OS(=O)(=O)O)c(COS(=O)(=O)O)c1` (stereo not drawn): the inhibition entry in test [1], in test [6] and in test [7] was “inactive” in each case. For the same compound, the result in test [5] was inactive.
In [8], `CC[C@@H](C)[C@H]1C(=O)N(C)[C@@H](Cc2ccccc2)C(=O)N[C@@H](C(C)C)C(=O)O[C@H](C)[C@H](NC(=O)[C@H](CCC(N)=O)NC(=O)[C@H](O)Cc2ccc(O)cc2)C(=O)N[C@@H](Cc2ccc(O)cc2)C(=O)N[C@H]2CC[C@@H](O)N1C2=O` (relative stereo) came in with an IC50 of 0.26 µM. Besides, the inhibition result in test [1], in test [6] and in test [3] was “inactive” throughout.
In turn, `N=C(N)NCCCCNC(=O)[C@H]1C[C@H]2CC[C@@H](O)C[C@H]2N1C(=O)[C@@H](Cc1ccccc1)NC(=O)[C@@H](O)Cc1ccc(O)cc1` had a half-maximal inhibitory concentration (IC50) in test [2] of 1.9 µM. Moreover, the inhibition entry in [3] and in test [4] was “inactive” throughout. The compound also returned an Activity in [9] of 30%.
`N=C(N)NCCCCNC(=O)[C@H]1C[C@H]2CC[C@@H](O)C[C@H]2N1C(=O)[C@@H](Cc1ccccc1)NC(=O)[C@H](O)Cc1ccc(O)cc1` had an inhibition in [1] below 50%. Moreover, half-maximal inhibition in test [2] (IC50) was put at 1.3 µM. For the same compound, the inhibition result in test [3] and in test [4] was “inactive” in each case.
